Results: patent publication US7498326B2, “Compounds” (Glaxo Group Limited, priority 2002, dated 2009)
Counter-ions that a name gives are not always drawn.

Assay: MIC of test compounds against various organisms
Type: cell-based
Experimental: The MIC (μg/ml) of test compounds against various organisms was determined including: S. epidermidis CL7, S. aureus WCUH29, S. pneumoniae 1629, S. pyogenes CN10, H. influenzae ATCC 49247, E. faecalis 2, M. catarrhalis Ravasio, E. coli 7623. Examples 1, 5, 6, 7, 8, 11, 13 have an MIC≦2 μg/ml versus all these organisms.

[1] = versus all these organisms: S. epidermidis CL7, S. aureus WCUH29, S. pneumoniae 1629, S. pyogenes CN10, H. influenzae ATCC 49247, E. faecalis 2, M. catarrhalis Ravasio, E. coli 7623

| SMILES | MIC [1] | MIC (versus some of these organisms (which of the eight listed strains is not stated)) |
| --- | --- | --- |
| COc1cnc2cccc(C(O)CN3CCC(NCc4ccc5c(n4)NC(=O)CS5)CC3)c2n1 (racemic) [Example 5, 6-{[(1-{(2R/S)-2-hydroxy-2-[3-(methyloxy)-5-quinoxalinyl]ethyl}-4-piperidinyl)amino]methyl}-2H-pyrido[3,2-b][1,4]thiazin-3(4H)-one dihydrochloride] | ≤ 2 mg/L | – |
| N#Cc1ccc2nccc(CCN3CC[C@H](NCc4ccc5c(n4)NC(=O)CO5)[C@H](O)C3)c2c1 (stereo in doubt) [Example 12, 4-[2-(3-hydroxy-4-{[(3-oxo-3,4-dihydro-2H-pyrido[3,2-b][1,4]oxazin-6-yl)methyl]amino}-1-piperidinyl)ethyl]-6-quinolinecarbonitrile (E1 isomer)] | ≤ 16 mg/L | – |
| N#Cc1ccc2nccc(CCN3CCC(NCc4ccc5c(n4)NC(=O)CO5)CC3)c2c1 [Example 1, 4-2-{4-[(3-Oxo-3,4-dihydro-2H-pyrido[3,2-b][1,4]oxazin-6-ylmethyl)-amino]-piperidin-1-yl}-ethyl)-quinoline-6-carbonitrile dihydrochloride] | ≤ 2 mg/L | – |
| O=C1CSc2ccc(CN[C@H]3CCN(CCc4ccnc5ccc6c(c45)OCCO6)C[C@H]3F)nc2N1 [Example 4, 6({(3R,4S)-1-[2-(2,3-Dihydro-[1,4]dioxino[2,3-f]quinolin-10-yl)-ethyl]-3-fluoro-piperidin-4-ylamino}-methyl)-4H-pyrido[3,2-b][1,4]thiazin-3-one] | ≤ 16 mg/L | – |
| COc1cnc2cccc(C(O)CN3CCC(NCc4cc5c(cn4)OCCO5)CC3)c2n1 (stereo not drawn) [Example 6, (1R/S)-2-{4-[(2,3-dihydro[1,4]dioxino[2,3-c]pyridin-7-ylmethyl)amino]1-1-piperidinyl}-1-[3-(methyloxy)-5-quinoxalinyl]ethanol dihydrochloride] | ≤ 2 mg/L | – |
| Clc1cnc2ccc3c(c2c1CCN1CCC(NCc2cc4c(cn2)OCCO4)CC1)OCCO3 [Example 7, {1-[2-(9-Chloro-2,3-dihydro-[1,4]dioxino[2,3-f]quinolin-10-yl)-ethyl]-piperidin-4-yl}-(2,3-dihydro-[1,4]dioxino[2,3-c]pyridin-7-ylmethyl)-amine dihydrochloride] | ≤ 2 mg/L | – |
| COc1ccc2cccc(C(O)CN3CCC(NCc4ccc5c(n4)NC(=O)CO5)CC3)c2n1 (stereo not drawn) [Example 8, 6-{[(1-{2-hydroxy-2-[2-(methyloxy)-8-quinolinyl]ethyl}4-piperidinyl)amino]methyl}-2H-pyrido[3,2-b][1,4]oxazin-3(4H)-one] | ≤ 2 mg/L | – |
| O=C1CSc2ccc(CNC3CCN(CCc4ccnc5ccccc45)CC3)nc2N1 [Example 9, 6-[({1-[2-(4-quinolinyl)ethyl]-4-piperidinyl}amino)methyl]-2H-pyrido[3,2-b][1,4]thiazin-3(4H)-one dihydrochloride] | – | ≤ 16 mg/L |
| N#Cc1ccc2nccc(CCN3CC[C@H](NCc4ccc5c(n4)NC(=O)CS5)[C@H](O)C3)c2c1 [Example 11, 4-[2-(3-hydroxy-4-{([(3-oxo-3,4-dihydro-2H-pyrido[3,2-b][1,4]thiazin-6-yl)methyl]amino}-1-piperidinyl)ethyl]-6-quinolinecarbonitriledihydrochloride (E2 isomer)] | ≤ 2 mg/L | – |
